The target in data set [1] is Tyrosine-protein kinase BTK (Homo sapiens, UniProt Q06187). The experiment in a line: Inhibition of BTK (unknown origin) by HTRF analysis.
Another data set relates to Ramos. As to the kind of experiment: Antiproliferative activity against human Ramos cells expressing BTK assessed as inhibition of cell proliferation incubated for 48 hrs by CCK-8 assay. The format is functional, cell-based. In general terms: Formazan colour is commonly taken as a measure of viable cells.
Data set [2] has as its system U-937. As to the kind of experiment: Antiproliferative activity against human U-937 cells expressing BTK assessed as inhibition of cell proliferation incubated for 48 hrs by CCK-8 assay. To be noted: U-937, 48 h. The format is functional, cell-based.
A short description of data set [3]: Aqueous solubility of compound in PBS buffer at pH 7.4 by HPLC analysis. The format is physicochemical.
Data set [4] is described as follows: Cmax in male Sprague-Dawley rat at 10 mg/kg, po measured up to 5 hrs by LC-MS/MS analysis. The format is ADME, organism-based. To be noted: in vivo.
Data set [5] can be described thus: MRT (0 to 5 hrs) in male Sprague-Dawley rat at 10 mg/kg, po measured up to 5 hrs by LC-MS/MS analysis. To be noted: in vivo. The format is ADME, organism-based.
A short description of data set [6]: AUC (0 to 5 hrs) in male Sprague-Dawley rat at 10 mg/kg, po measured up to 5 hrs by LC-MS/MS analysis. The format is ADME, organism-based. To be noted: in vivo.
Data set [7] can be described thus: Tmax in male Sprague-Dawley rat at 10 mg/kg, po measured up to 5 hrs by LC-MS/MS analysis. The format is ADME, organism-based. To be noted: in vivo.
The test system of data set [8] is U-937. The experiment in a line: Antitumor activity against human U-937 cells xenografted in BALB/c mouse assessed as tumor growth inhibition at 50 mg/kg, po administered once a day for 14 days. The format is functional. To be noted: U-937, 336 h, time 14 day, read-out: TGI. (A xenograft is tissue or cells of one species grown in another, often human tumour cells in immunodeficient mice.)

Data set [9] can be described thus: Metabolic stability in rat liver microsome measured for 60 mins by UHPL-UV-HRMS analysis. The format is ADME. To be noted: microsomes, 1 h.
Data set [10] is described as follows: AUC (0 to t) in male Sprague-Dawley rat at 10 mg/kg, po measured up to 24 hrs by LC-MS/MS analysis. The format is ADME, organism-based. To be noted: in vivo.

Converted amounts (≈) assume the structure as drawn. A value given as a limit tells only on which side of the number the result lay.

Sequence of Tyrosine-protein kinase BTK (Q06187 whole entry): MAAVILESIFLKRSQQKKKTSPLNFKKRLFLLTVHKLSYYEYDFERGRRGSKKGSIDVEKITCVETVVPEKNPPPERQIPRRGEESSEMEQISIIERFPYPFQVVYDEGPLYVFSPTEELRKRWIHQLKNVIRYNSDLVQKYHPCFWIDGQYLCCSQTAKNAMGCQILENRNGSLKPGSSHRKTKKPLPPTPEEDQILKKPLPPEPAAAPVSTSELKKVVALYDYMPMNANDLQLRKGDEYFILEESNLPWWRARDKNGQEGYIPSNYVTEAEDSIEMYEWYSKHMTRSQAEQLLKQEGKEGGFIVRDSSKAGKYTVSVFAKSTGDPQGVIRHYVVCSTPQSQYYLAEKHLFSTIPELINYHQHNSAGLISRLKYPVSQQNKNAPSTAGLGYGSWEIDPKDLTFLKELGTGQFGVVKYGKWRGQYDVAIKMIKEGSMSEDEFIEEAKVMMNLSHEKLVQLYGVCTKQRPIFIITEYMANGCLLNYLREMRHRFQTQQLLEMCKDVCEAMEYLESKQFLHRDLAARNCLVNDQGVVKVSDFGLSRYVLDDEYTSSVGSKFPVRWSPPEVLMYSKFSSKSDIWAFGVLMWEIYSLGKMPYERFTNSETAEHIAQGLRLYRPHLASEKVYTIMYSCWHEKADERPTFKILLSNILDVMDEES

One may read the IC50 as the concentration needed to halve the response being measured. `Cc1c(-c2ccc3c(=O)[nH]c4cc(C(F)F)ccc4n23)cccc1-n1c(=O)[nH]c2c(F)cccc2c1=O` returned an IC50 in data set [1] of 0.0536 µM.

In the case of `Cc1c(-c2ccc3c(=O)[nH]c4cc(C(F)(F)F)ccc4n23)cccc1-n1c(=O)[nH]c2c(F)cccc2c1=O`, in [1], the IC50 was 0.0607 µM.

Consider `Cc1c(-c2ccc3c(=O)[nH]c4cc(C(C)(C)O)ccc4n23)cccc1-n1c(=O)[nH]c2c(F)cc(F)cc2c1=O`, for which the IC50 in data set [1] was 0.0072 µM; in the data set with Ramos it was 35.6 µM; with U-937 [2], > 40 µM.

As to `Cc1c(-c2c(F)cc(C(N)=O)c3[nH]c4c(c23)CC[C@H](C(C)(C)O)C4)cccc1-n1c(=O)c2cccc(F)c2n(C)c1=O` [BMS-986142], the IC50 in [1] worked out at 0.00042 µM; with Ramos, 13.6 µM; with U-937 [2], 9.3 µM.

By solubility is commonly meant how much of the substance goes into solution per volume. For `Cc1c(-c2cc(CO)c3c(=O)[nH]c4cc(C(C)(C)O)ccc4n23)cccc1-n1c(=O)[nH]c2c(F)cccc2c1=O`, the IC50 in data set [1] was determined as 0.327 µM. In data set [3], this compound came in with a solubility of 5.5 µg/mL (≈ 10.2 µM).

As for `Cc1c(-c2ccc3c(=O)[nH]c4cc(C(C)(C)O)ccc4n23)cccc1N1CNc2c(F)cccc2C1=O`, the results for the IC50 (in data set [1]; in the data set on Ramos; in the data set on U-937 [2]) were 0.0181 µM, 16.8 µM and 15.9 µM, respectively.

For `Cc1c(-c2ccc3c(=O)[nH]c4cc(C(C)(C)O)ccc4n23)cccc1-n1c(=O)[nH]c2cccc(F)c2c1=O`, the IC50 in data set [1] was found to be 0.0121 µM; in the data set on Ramos, 17.9 µM; in the data set with U-937 [2] it was 6.2 µM.

Broadly, the Cmax is the highest concentration seen after dosing. In general, MRT last refers to a mean duration of stay, worked out from the concentration-time curve. One may read the AUC(0-t) as exposure summed from dosing to a finite time, without extrapolation to infinity. Read a high AUC(0-t) as more exposure. What is called Tmax is the time from dosing to the highest level. For `[2H]C([2H])([2H])C(O)(c1ccc2c(c1)[nH]c(=O)c1ccc(-c3cccc(-n4c(=O)[nH]c5c(F)cccc5c4=O)c3C)n12)C([2H])([2H])[2H]`, the IC50 in [1] turned out to be 0.0124 µM; in the data set on Ramos, 19 µM; in the data set with U-937 [2] it was 13.3 µM. The Cmax in [4] is 10.4 ng/mL. Besides, the MRT last at 5 h in [5] came out at 2.05 h. In data set [6], this compound had an AUC(0-t) at 5 h of 31.1 ng·h/mL. In [7], the Tmax came out at 0.5 h.

With `Cc1c(-c2c(F)cc3c(=O)[nH]c4cc(C(C)(C)O)ccc4n23)cccc1-n1c(=O)[nH]c2c(F)cccc2c1=O`, the values for the IC50 (in data set [1]; in the data set with Ramos; with U-937 [2]) were 0.0058 µM, > 40 µM and > 40 µM, respectively.

Regarding `Cc1c(-c2ccc3c(=O)[nH]c4cc(C(C)(C)O)ccc4n23)cc(F)cc1-n1c(=O)[nH]c2c(F)cccc2c1=O`, the IC50 is 0.0173 µM in data set [1], 23.7 µM in the data set on Ramos and 12 µM in the data set with U-937 [2].

As to `Cc1c(-c2ccc3c(=O)[nH]c4cc(C(C)(C)O)ccc4n23)cccc1N1C(=O)c2cccc(F)c2C1=O`, the IC50 in data set [1] is 0.0221 µM; in the data set with Ramos, > 40 µM; in the data set on U-937 [2], > 40 µM.

Turning to `Cc1c(-c2c(C#N)cc3c(=O)[nH]c4cc(C(C)(C)O)ccc4n23)cccc1-n1c(=O)[nH]c2c(F)cccc2c1=O`, the IC50 in data set [1] was > 1 µM.

Consider `Cc1c(NC(=O)c2cccc(F)c2N)cccc1-c1ccc2c(=O)[nH]c3cc(C(C)(C)O)ccc3n12`, for which, in data set [1], 0.0492 µM corresponded to half-maximal inhibition (IC50).

Regarding `Cc1c(-c2ccc3n2Cc2ccc(C(C)(C)O)cc2NC3=O)cccc1-n1c(=O)[nH]c2c(F)cccc2c1=O`, the IC50 in [1] is > 1 µM. For the same compound, the solubility in data set [3] was < 0.5 µg/mL.

For `C=CC(=O)N1CCC[C@@H](n2nc(-c3ccc(Oc4ccccc4)cc3)c3c(N)ncnc32)C1` [IBRUTINIB], the IC50 in the data set with Ramos came to 15.1 µM; with U-937 [2], 3.7 µM. In the data set on U-937 [8], the inhibition in vivo at 50 mg/kg was determined as 41.1%.

Take `CC(C)(O)c1ccc2c(c1)[nH]c(=O)c1ccc(-c3cccc(-n4c(=O)[nH]c5c(F)cccc5c4=O)c3C(F)F)n12`: the values for the IC50 (in data set [1]; in the data set on Ramos; in the data set with U-937 [2]) were 0.0107 µM, > 40 µM and 12.5 µM, respectively.

Turning to `Cc1c(-c2ccc3c(=O)[nH]c4cc(C(C)(C)O)ccc4n23)cccc1-n1c(=O)oc2c(F)cccc2c1=O`, in [1], the IC50 was 0.0542 µM.

For `Cc1cc2c(=O)[nH]c3cc(C(C)(C)O)ccc3n2c1-c1cccc(-n2c(=O)[nH]c3c(F)cccc3c2=O)c1C`, the IC50 in data set [1] was found to be 0.011 µM; in the data set on Ramos it was 15 µM; in the data set with U-937 [2], 6 µM. For the same compound, the Cmax in [4] came to 5.16 ng/mL. Also, the MRT last at 5 h in [5] came to 1.17 h. This compound also registered an AUC(0-t) at 5 h in data set [6] of 8.45 ng·h/mL. Also, in data set [7], the Tmax amounted to 1 h.

In the case of `Cc1c(-c2ccc(C(N)=O)n2-c2ccc(C(C)(C)O)cc2)cccc1-n1c(=O)[nH]c2c(F)cccc2c1=O`, in data set [1], the IC50 is > 1 µM. The compound also yielded a solubility in data set [3] of 30.6 µg/mL (≈ 59.7 µM).

Consider `Cc1c(-c2ccc3c(=O)[nH]c4cc(CN5CCOCC5)ccc4n23)cccc1-n1c(=O)[nH]c2c(F)cccc2c1=O`, for which, in [1], inhibition was half-maximal at 0.0334 µM (IC50).

Regarding `Cc1c(-c2ccc3c(=O)[nH]c4cc(C(C)(C)O)ccc4n23)cccc1-n1c(=O)[nH]c2c(F)cccc2c1=O`, the IC50 in [1] was 0.0083 µM; in the data set with Ramos it was 19.9 µM; in the data set on U-937 [2], 11.6 µM. Further, in data set [3], the concentration in solution (solubility) came to 1.1 µg/mL (≈ 2.15 µM). In addition, the Stability result in data set [9] is reported as “Stable”. Moreover, the inhibition in vivo at 50 mg/kg in the data set on U-937 [8] was found to be 28.7%. Moreover, the Cmax in data set [4] came to 14.2 ng/mL. The AUC(0-t) at 24 h in data set [10] is 51.9 ng·h/mL. The compound further came in with an MRT last at 5 h in data set [5] of 1.02 h. The same compound showed an AUC(0-t) at 5 h in data set [6] of 39.7 ng·h/mL. Besides, in data set [7], the Tmax came to 1 h.

Regarding `CC(C)(O)c1ccc2c(c1)[nH]c(=O)c1ccc(-c3cccc(-n4c(=O)[nH]c5c(F)cccc5c4=O)c3)n12`, it took 0.0737 µM to reach half-maximal inhibition in data set [1] (IC50).

For the compound `Cc1c(-c2ccc3c(=O)[nH]c(-c4ccc(C(C)(C)O)cc4)cn23)cccc1-n1c(=O)[nH]c2c(F)cccc2c1=O`, the IC50 in data set [1] was 0.0648 µM. The solubility in [3] is < 0.5 µg/mL.

As to `CC(C)(O)c1ccc2c(c1)[nH]c(=O)c1ccc(-c3cccc(-n4c(=O)[nH]c5c(F)cccc5c4=O)c3CO)n12`, the 50% inhibitory concentration (IC50) in data set [1] was 0.015 µM; in the data set on Ramos, > 40 µM; in the data set on U-937 [2], > 40 µM. In data set [3], this compound gave a solubility of 8.4 µg/mL (≈ 16 µM).

For the compound `Cc1c(-c2ccc3c(=O)[nH]c4cc(C(C)(C)O)ccc4n23)cccc1-n1c(=O)[nH]c2cc(C3CC3)ccc2c1=O`, the figures for the IC50 (in [1]; with Ramos; with U-937 [2]) were 0.0168 µM, 8.7 µM and 13.8 µM, respectively.

In data set [1], `Cc1c(-c2ccc3c(=O)[nH]c4cc(C(C)(C)O)ccc4n23)cccc1N1CC(=O)Nc2c(F)cccc2C1=O` yielded an IC50 of 0.0368 µM. In [3], this compound yielded a solubility of 6.3 µg/mL (≈ 12 µM).
